Assay results taken from paper PMC9402538, “Rational design of a sensitivity-enhanced tracer for discovering efficient APC–Asef inhibitors” (Nature Communications, 2022).
Where two headings read alike, the source gives them in different places. Where a SMILES comes first, the peptide text is derived from it. [ ]: non-standard residue; d: D form. The star is where a group is joined. Ala(cPent) = N[C@@H](CC1CCCC1)C(=O)O; Benzoyl(4-OMe) = COc1ccc(C(=O)*)cc1

Biological target: T1, APC (303–739) (Homo sapiens, UniProt P25054)
T1 sequence (P25054 303-739): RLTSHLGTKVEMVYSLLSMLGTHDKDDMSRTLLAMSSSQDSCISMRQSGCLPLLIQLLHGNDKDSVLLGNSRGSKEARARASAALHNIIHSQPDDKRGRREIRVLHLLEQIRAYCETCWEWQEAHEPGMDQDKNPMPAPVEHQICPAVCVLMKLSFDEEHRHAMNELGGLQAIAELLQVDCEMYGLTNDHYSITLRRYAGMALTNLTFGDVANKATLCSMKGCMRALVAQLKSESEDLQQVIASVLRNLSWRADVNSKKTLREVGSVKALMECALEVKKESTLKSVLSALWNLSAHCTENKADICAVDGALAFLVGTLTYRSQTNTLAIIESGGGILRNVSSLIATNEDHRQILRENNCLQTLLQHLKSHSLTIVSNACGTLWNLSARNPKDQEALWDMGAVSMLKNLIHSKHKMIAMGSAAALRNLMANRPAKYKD
Assay: FP competitive assay using tracer 7
Format: binding
Settings: for IC50: tracer 7
How it was run: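 Fluorescence polarization competition: APC (303–739) in 50 mM HEPES pH 7.5, 300 mM NaCl, 1 mM EDTA, 1 mM DTT, preincubated 1 h at room temperature with serially diluted peptides. FITC tracer 7 then added (400 nM stock) and FP read after 1.5 h at room temperature; IC50 by nonlinear regression, triplicates.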

[1] = Conc. 4 μM, individual repeats, Fig3b

COc1ccc(C(=O)N[C@@H](C)C(=O)NCC(=O)N[C@@H](CCC(=O)O)C(=O)N[C@@H](CO)C(=O)N[C@@H](CC2CCCC2)C(=O)N[C@@H](Cc2ccc(O)cc2)C(=O)N[C@@H](CCC(=O)O)C(N)=O)cc1 [MAI-519] ({Benzoyl(4-OMe)}-AGES[Ala(cPent)]YE-NH2)
inhibition at 0.001 µM (Conc. 0.001 μM, individual repeats, Fig3b, read-out: %inhibition): 1.6% | %inhibition (Conc. 0.002 μM, individual repeats, Fig3b): 2.6% | inhibition at 0.002 µM (Conc. 0.002 μM, individual repeats, Fig3b, read-out: %inhibition): 2.9% | %inhibition (Conc. 0.0039 μM, individual repeats, Fig3b): 5.4% | inhibition at 0.0039 µM (Conc. 0.0039 μM, individual repeats, Fig3b, read-out: %inhibition): 4.1% | inhibition at 0.006 µM (Conc. 0.006 μM, individual repeats, Fig3b, read-out: %inhibition): 4.4% | %inhibition (Conc. 0.0078 μM, individual repeats, Fig3b): 13.3% | inhibition at 0.0078 µM (Conc. 0.0078 μM, individual repeats, Fig3b, read-out: %inhibition): 8.8% | inhibition at 0.012 µM (Conc. 0.012 μM, individual repeats, Fig3b, read-out: %inhibition): 16.9% | %inhibition (Conc. 0.0156 μM, individual repeats, Fig3b): 35% | inhibition at 0.0156 µM (Conc. 0.0156 μM, individual repeats, Fig3b, read-out: %inhibition): 24% | inhibition at 0.024 µM (Conc. 0.024 μM, individual repeats, Fig3b, read-out: %inhibition): 38.4% | %inhibition (Conc. 0.0313 μM, individual repeats, Fig3b): 59% | inhibition at 0.0313 µM (Conc. 0.0313 μM, individual repeats, Fig3b, read-out: %inhibition): 51.7% | inhibition at 0.049 µM (Conc. 0.049 μM, individual repeats, Fig3b, read-out: %inhibition): 60.2% | %inhibition (Conc. 0.0625 μM, individual repeats, Fig3b): 74.1% | inhibition at 0.0625 µM (Conc. 0.0625 μM, individual repeats, Fig3b, read-out: %inhibition): 71.7% | inhibition at 0.098 µM (Conc. 0.098 μM, individual repeats, Fig3b, read-out: %inhibition): 77.7% | %inhibition (Conc. 0.125 μM, individual repeats, Fig3b): 86.1% | inhibition at 0.125 µM (Conc. 0.125 μM, individual repeats, Fig3b, read-out: %inhibition): 85.5% | inhibition at 0.195 µM (Conc. 0.195 μM, individual repeats, Fig3b, read-out: %inhibition): 89% | %inhibition (Conc. 0.25 μM, individual repeats, Fig3b): 91.7% | inhibition at 0.25 µM (Conc. 0.25 μM, individual repeats, Fig3b, read-out: %inhibition): 92.8% | inhibition at 0.391 µM (Conc. 0.391 μM, individual repeats, Fig3b, read-out: %inhibition): 94.2% | %inhibition (Conc. 0.5 μM, individual repeats, Fig3b): 95.8% | inhibition at 0.5 µM (Conc. 0.5 μM, individual repeats, Fig3b, read-out: %inhibition): 96.7% | inhibition at 0.781 µM (Conc. 0.781 μM, individual repeats, Fig3b, read-out: %inhibition): 97.3% | %inhibition (Conc. 1 μM, individual repeats, Fig3b): 97.7% | inhibition at 1 µM (Conc. 1 μM, individual repeats, Fig3b, read-out: %inhibition): 98.4% | inhibition at 1.563 µM (Conc. 1.563 μM, individual repeats, Fig3b, read-out: %inhibition): 98.1% | inhibition at 2 µM (Conc. 2 μM, individual repeats, Fig3b, read-out: %inhibition): 99.3% | inhibition at 3.125 µM (Conc. 3.125 μM, individual repeats, Fig3b, read-out: %inhibition): 98.9% | %inhibition [1]: 98.8% | inhibition at 4 µM [1]: 99% | inhibition at 6.25 µM (Conc. 6.25 μM, individual repeats, Fig3b, read-out: %inhibition): 99.5% | inhibition at 8 µM (Conc. 8 μM, individual repeats, Fig3b): 99% | inhibition at 12.5 µM (Conc. 12.5 μM, individual repeats, Fig3b, read-out: %inhibition): 97.6% | inhibition at 25 µM (Conc. 25 μM, individual repeats, Fig3b, read-out: %inhibition): 97.6% | inhibition at 50 µM (Conc. 50 μM, individual repeats, Fig3b, read-out: %inhibition): 97.6% | mean (FP signal, FigS5) (Repeat 1, Conc. 0.006 μM): 284.3 | mean (FP signal, FigS5) (Repeat 1, Conc. 0.012 μM): 253.5 | mean (FP signal, FigS5) (Repeat 1, Conc. 0.024 μM): 200.3 | mean (FP signal, FigS5) (Repeat 1, Conc. 0.049 μM): 146.3 | mean (FP signal, FigS5) (Repeat 1, Conc. 0.098 μM): 103 | mean (FP signal, FigS5) (Repeat 1, Conc. 0.195 μM): 75 | mean (FP signal, FigS5) (Repeat 1, Conc. 0.391 μM): 62 | mean (FP signal, FigS5) (Repeat 1, Conc. 0.781 μM): 54.3 | mean (FP signal, FigS5) (Repeat 1, Conc. 1.563 μM): 52.3 | mean (FP signal, FigS5) (Repeat 1, Conc. 3.125 μM): 50.3 | mean (FP signal, FigS5) (Repeat 1, Conc. 6.25 μM): 49 | mean (FP signal, FigS5) (Repeat 1, Conc. 12.5 μM): 53.7 | mean (FP signal, FigS5) (Repeat 1, Conc. 25 μM): 53.7 | mean (FP signal, FigS5) (Repeat 1, Conc. 50 μM): 53.7 | mean (FP signal, FigS5) (Repeat 2, Conc. 0.001 μM): 301 | mean (FP signal, FigS5) (Repeat 2, Conc. 0.002 μM): 297.7 | mean (FP signal, FigS5) (Repeat 2, Conc. 0.0039 μM): 294.7 | mean (FP signal, FigS5) (Repeat 2, Conc. 0.0078 μM): 282.7 | mean (FP signal, FigS5) (Repeat 2, Conc. 0.0156 μM): 244 | mean (FP signal, FigS5) (Repeat 2, Conc. 0.0313 μM): 173.3 | mean (FP signal, FigS5) (Repeat 2, Conc. 0.0625 μM): 122.3 | mean (FP signal, FigS5) (Repeat 2, Conc. 0.125 μM): 87.3 | mean (FP signal, FigS5) (Repeat 2, Conc. 0.25 μM): 68.7 | mean (FP signal, FigS5) (Repeat 2, Conc. 0.5 μM): 58.7 | mean (FP signal, FigS5) (Repeat 2, Conc. 1 μM): 54.3 | mean (FP signal, FigS5) (Repeat 2, Conc. 2 μM): 52 | mean (FP signal, FigS5) (Repeat 2, Conc. 4 μM): 53 | mean (FP signal, FigS5) (Repeat 2, Conc. 8 μM): 53 | mean (FP signal, FigS5) (Repeat 3, Conc. 0.001 μM): 292.7 | mean (FP signal, FigS5) (Repeat 3, Conc. 0.002 μM): 290.3 | mean (FP signal, FigS5) (Repeat 3, Conc. 0.0039 μM): 283.3 | mean (FP signal, FigS5) (Repeat 3, Conc. 0.0078 μM): 264 | mean (FP signal, FigS5) (Repeat 3, Conc. 0.0156 μM): 211 | mean (FP signal, FigS5) (Repeat 3, Conc. 0.0313 μM): 152 | mean (FP signal, FigS5) (Repeat 3, Conc. 0.0625 μM): 115 | mean (FP signal, FigS5) (Repeat 3, Conc. 0.125 μM): 85.7 | mean (FP signal, FigS5) (Repeat 3, Conc. 0.25 μM): 72 | mean (FP signal, FigS5) (Repeat 3, Conc. 0.5 μM): 62 | mean (FP signal, FigS5) (Repeat 3, Conc. 1 μM): 57.3 | mean (FP signal, FigS5) (Repeat 3, Conc. 2 μM): 56.3 | mean (FP signal, FigS5) (Repeat 3, Conc. 4 μM): 54.7 | mean (FP signal, FigS5) (Repeat 3, Conc. 8 μM): 53.3 | IC50 (mean of three repeats, read-out: IC50 mean): 25.1 nM | IC50 (read-out: IC50 Repeat 1): 23 nM | IC50 (read-out: IC50 Repeat 2): 29.6 nM | IC50 (read-out: IC50 Repeat 3): 22.7 nM
